# Entries after “also recorded” stand apart in the source; their conditions may differ. Like-named read-outs stand apart in the source and are kept apart here.
# Tests used:
# [1] = test system: Adipose-Derived Stem Cells (ADSC); experiment: Propidium iodide (PI) staining of treated differentiated ADSCs (CLSM); format: cell-based, human
# Protocol: Further analysis of the cell-damaging effect of sodium deoxycholate on ADSCs was performed by PI staining of the treated cells and subsequent analysis with CLSM. The differentiated, mature adipocytes were treated with: • 0.05 mg/ml, 0.1 mg/ml and 0.5 mg/ml sodium deoxycholate for 4 hours.
# Then the cells were incubated in a medium containing 5 µg/ml propidium iodide for 5 minutes. This was followed by microscopic analysis with CLSM at a 63-fold magnification (FIG. 3c).
# (§1) After the incubation period (4 hours) the adipocytes were stained with 5 μm/ml PI and analyzed with CLSM. In the upper PI-row (a-e) fluorescence images of PI-stained cells are shown. In the lower PK-row (a-e) the corresponding phase contrast images are presented with the overlapping fluorescence images over one another.
# A further analysis of a cell-damaging effect of phosphatidyl choline on ADSCs was performed by PI staining of the treated cells and subsequent analysis with CLSM. The differentiated, mature adipocytes were treated with: • 5 mg/ml, 10 mg/ml and 15 mg/ml phosphatidyl choline for 4 hours.
# Then the cells were incubated in a medium containing 5 μg/ml propidium iodide for 5 minutes. This was followed by microscopic analysis with CLSM at a 63-fold magnification (FIG. 4c).
# as §1, with “μg/ml” for “μm/ml”, “another (Size bar=20 μm).” for “another.”
# [2] = test system: Adipose-Derived Stem Cells (ADSC); experiment: Membrane damaging effect on differentiated ADSCs (light microscopy, CLSM); format: cell-based, human; conditions: 4 hours
# Text: The human subcutaneous adipose tissue can serve as a potential source of adult stem cells. These so-called “Adipose-Derived Stem Cells” (ADSC) are multipotent and may be differentiated by appropriate stimuli into various cell types, e.g. osteoblasts, chondrocytes, adipocytes. The isolation of ADSCs from human subcutaneous adipose tissue which is removed during plastic reductive surgery, is shown schematically in FIG. 2.
# First the fat was washed with buffer to remove hematopoietic cells, and then crushed. The resulting pieces of fatty tissue were digested with collagenase. By centrifugation of the digested tissue the stromal-vascular fraction was separated and the floated mature adipocytes were discarded. The stromal-vascular fraction in the pellet is composed of a heterogeneous cell population of blood cells, fibroblasts, pericytes, endothelial cells and preadipocytes.
# This cell population was transferred into a culture bottle with medium, wherein a portion of the cells adhered. By adding a suitable cocktail consisting of insulin, dexamethasone, indomethacin and isobutylmethylxanthine or consisting of insulin, cortisol, troglitazone, triiodothyronine and isobutylmethylxanthine the cells were stimulated for adipogenesis and an improved adipogenic differentiation was achieved.
# The ADSCs of Example 4 were stimulated by a hormone cocktail (insulin, cortisol, troglitazone, triiodothyronine and isobutylmethylxanthine) to adipogenesis and then differentiated for another 21 days into mature adipocytes.
# This was followed by a treatment with sodium deoxycholate. For this the following concentrations were used: • 0.01 mg/ml, 0.05 mg/ml, 0.075 mg/ml, 0.1 mg/ml and 0.5 mg/ml.
# The incubation period was 4 hours.
# This concentration range has been already proven to be effective in 3T3-L1. After the incubation period of 4 hours, the differentiated treated cells were subsequently viewed by light microscopy (FIG. 3a).
# Additionally, ADSCs treated with sodium deoxycholate were examined with CLSM. The differentiated, mature adipocytes were treated with: • 0.01 mg/ml, 0.05 mg/ml and 0.1 mg/ml sodium deoxycholate for 4 hours.
# This was followed by microscopic analysis with CLSM at a 63-fold magnification (FIG. 3b). […]
# 3T3-L1 cells [3] = experiment: Membrane damaging / cytotoxic effect on differentiated 3T3-L1 cells (light microscopy, CLSM phase contrast); format: cell-based, murine; conditions: for In vitro Cell damaging causing concentration: single agent
# Protocol: In order to test in vitro the effects of phosphatidyl choline on the membrane integrity and stability, differentiated 3T3-L1 cells were incubated with different concentrations of phosphatidyl choline for 4 and 24 hours and then analyzed by light microscopy.
# As a model system, the murine preadipocyte cell line 3T3-L1 was used for the studies. 3T3-L1 cells were stimulated to adipogenesis by a conventional hormone cocktail (corticosterone, isobutylmethylxanthine, indomethacin, insulin) and differentiated for another 8 days to mature adipocytes.
# The mature adipocytes of the 3T3-L1 cells were treated with various concentrations of phosphatidyl choline.
# First, a phosphatidyl choline stock solution was prepared: • 500 mg/ml phosphatidyl choline dissolved in 70% ethanol
# The used concentrations of phosphatidyl choline were: • 1 mg/ml, 5 mg/ml, 10 mg/ml, 15 mg/ml, 20 mg/ml
# FIG. 1a: Phase contrast images of treated differentiated 3T3-L1 cells in 2D cell culture. The treatment was as follows: • (a) control=untreated cells in differentiation medium • (b) 1 mg/ml of phosphatidyl choline after 24 hours • (b) 5 mg/ml of phosphatidyl choline after 24 hours • (d) 10 mg/ml of phosphatidyl choline after 24 hours • (e) 15 mg/ml of phosphatidyl choline after 24 hours • (f) 20 mg/ml of phosphatidyl choline after 24 hours • (Size bar=100 μm).
# FIG. 1b: Phase contrast images using a CLSM at a 63-fold magnification of treated differentiated 3T3-L1 cells in 2D cell culture. The treatment was as follows: • (a) control=untreated cells in differentiation medium after 4 hours • (b) 1 mg/ml of phosphatidyl choline after 4 hours • (c) 5 mg/ml of phosphatidyl choline after 4 hours • (d) 10 mg/ml of phosphatidyl choline after 4 hours • (Size bar=20 μm).
# As a model system the murine preadipocyte cell line 3T3-L1 was used for the studies. 3T3-L1 cells were stimulated by a hormone cocktail (corticosterone, isobutylmethylxanthine, indomethacin, insulin) to adipogenesis and differentiated for another 8 days to mature adipocytes.
# The mature adipocytes of 3T3-L1 cells were incubated with various concentrations of phosphatidyl choline between 0.1 mg/ml and 50 mg/ml. The phosphatidyl choline was combined with 2-20 mg/ml glycyrrhizinate and 18-180 mg/ml maltose.
# The incubation of mature 3T3-L1 cells was performed for a duration of 4 hours with the substances combination.
# Then the treated cells were examined at a 63-fold magnification by light microscopy for a membrane destabilizing and cytotoxic effect.
# FIG. 9: Phase contrast images of treated differentiated 3T3-L1 cells. 3T3-L1 were stimulated by a hormonal induction cocktail to adipogenesis and then differentiated for 8 days. The mature adipocytes were treated for 24 hours with phosphatidyl choline and sodium deoxycholate from Lipostabil® with the following concentrations: • (a) untreated cells in differentiation medium, • (b) 0.01 mg/ml phosphatidyl choline+0.005 mg/ml Na-deoxycholate, • (c) 0.1 mg/ml phosphatidyl choline+0.05 mg/ml Na-deoxycholate, • (d) 0.25 mg/ml phosphatidyl choline+0.125 mg/ml Na-deoxycholate, • (e) 0.5 mg/ml phosphatidyl choline+0.25 mg/ml Na-deoxycholate, • (f) 1 mg/ml phosphatidyl choline+0.5 mg/ml Na-deoxycholate.
# The analysis was done using the light microscope. Cells with damaged membrane or cell fragments are marked examplary with black arrows, while free lipid droplets are indicated by white arrows.
# 3T3-L1 cells [4] = experiment: Lipolysis assay (glycerol release) with differentiated 3T3-L1 cells; format: cell-based, murine; conditions: 10 μM, 4 hours, 3% BSA/PBS; positive control
# Protocol: 3T3-L1 cells were stimulated by a hormone cocktail to adipogenesis and differentiated for another 8 days to mature adipocytes. […] The lipolytic activity was measured using a lipolysis assay, as described below: The cleavage of triglycerides into glycerol and the three fatty acids is known as lipolysis. This process is catalyzed primarily by the hormone-sensitive lipase and the adipose triglyceride lipase. Using a lipolysis assay the lipolytic activity of cells can be detected. This assay is based on the measurement of glycerol emerged during lipolysis, which is secreted by the cells into the medium. The glycerol is metabolized by enzymatic reactions to glycerol-1-phosphate and then to dihydroxy acetone phosphate. Thereby hydrogen peroxide is produced, which is quantified photometrically with a peroxidase stain reaction. In order to be able to make statements about the lipolytic action of substances, they are compared with the basal lipolysis activity of the cells and with the lipolysis stimulated by the beta-adrenergic receptor. Such a stimulation can be caused by isoproterenol. FIG. 7: Graphical picture of the analysis of the lipolysis assay (μg glycerol/μg DNA) with treated differentiated 3T3-L1 cells. 3T3-L1 were stimulated by a hormonal induction cocktail to adipogenesis and then differentiated for 8 days. […]
compound,measurement,setting,value
Triton,PI staining (membrane integrity),[1],red cells stained by PI
sodium deoxycholate [Na-deoxycholate],membrane damaging / cytotoxic effect,[2]; 0.01 mg/ml,no effect on the cells; also recorded: no cytotoxic effect
same,membrane damaging / cytotoxic effect,[2]; 0.05 mg/ml,slight damages of the cell membrane
same,membrane damaging / cytotoxic effect,"[2]; 0.05 mg/ml, listed as Na-DC",injury
same,membrane damaging / cytotoxic effect,"[2]; 0.1 mg/ml, CLSM",strong membrane damage
same,membrane damaging / cytotoxic effect,[2]; 0.5 mg/ml,significantly toxic effect on the cells
same,membrane damaging / cytotoxic effect,"[2]; 0.5 mg/ml, listed as Na-DC",dead
same,PI staining (membrane integrity),"[1]; 0.05 mg/ml, 4 hours",no red-stained cells
same,PI staining (membrane integrity),"[1]; 0.1 mg/ml, 4 hours",individual red-stained cells
same,PI staining (membrane integrity),"[1]; 0.5 mg/ml, 4 hours",many and clearly red-stained cells
same,PI staining (membrane integrity),"[1]; 5, 10 and 15 mg/ml, 4 hours",no red-stained cells
same,membrane damaging effect,3T3-L1 cells [3]; 0.05 mg/ml,membrane-damaging effects occurred
same,membrane damaging effect,3T3-L1 cells [3]; 0.5 mg/ml,highly toxic
same,effect on the cell membrane,3T3-L1 cells [3]; 20 mg/ml,clear destruction of the cell membrane
same,In vitro Cell damaging causing concentration,3T3-L1 cells [3],≥ 0.05 mg/mL
same,In vitro Cell damaging causing concentration,3T3-L1 cells [3]; listed as Na Deoxycholate,from 0.05 mg/ml
CC(C)NCC(O)c1ccc(O)c(O)c1 (centres unmarked) [isoproterenol],lipolytic activity compared to the basal level,3T3-L1 cells [4],eight times the basal level
